The source of these data is US9845310B2 (priority 2015, dated 2017).

Where “and” joins values, the source holds several entries; their conditions need not be identical. Identical values can stand only once. Like-named read-outs stand apart in the source and are kept apart here.

Test [1] concerns naive Sprague Dawley rat hearts. To be noted: for left ventricular dP/dtmax (load independent cardiac contractility) / left ventricular dP/dtmin (load independent cardiac relaxation): ex vivo naive Sprague Dawley rat hearts, Langendorff apparatus, as a function of concentration.
A further test relates to heart failure rat model. The format is in vivo. Conditions: for cardiac contractility as measured by dP/dtmax (derivative of left ventricular pressure): male Lewis rats, heart failure by permanent ligation of left descending coronary artery, ejection fraction <35%, dosed acutely for 30 min. On the procedure: Male Lewis rats (Charles River, USA) at 2-3 months of age were used for the study. […] APJ agonists were administered dose dependently acutely for a period of 30 min.

The target in test [2] is T1, APJ (Homo sapiens (Human), UniProt P35414). Conditions: 2003 study, Medhurst et al.; cited from earlier work.
In test [3] the target is T1, APJ. Kind of test: [35S]GTPγS binding assay on membranes from CHO cells stably expressing human APJ receptor. The format is biochemical. In general terms: Binding of GTPγS marks nucleotide exchange on a G protein.
The mark [4] stands for this setting: ex vivo isolated perfused rat heart, contractility, percent change over vehicle.
[5] abbreviates: ex vivo isolated perfused rat heart, relaxation (lusitropic), percent change over vehicle.
Setting [6] is: in vivo heart failure (MI) rat, acute administration for 30 min.
Where [7] appears, read: read-out: Activity hAPJ SPA EC50 IP.

T1 sequence (P35414 whole entry): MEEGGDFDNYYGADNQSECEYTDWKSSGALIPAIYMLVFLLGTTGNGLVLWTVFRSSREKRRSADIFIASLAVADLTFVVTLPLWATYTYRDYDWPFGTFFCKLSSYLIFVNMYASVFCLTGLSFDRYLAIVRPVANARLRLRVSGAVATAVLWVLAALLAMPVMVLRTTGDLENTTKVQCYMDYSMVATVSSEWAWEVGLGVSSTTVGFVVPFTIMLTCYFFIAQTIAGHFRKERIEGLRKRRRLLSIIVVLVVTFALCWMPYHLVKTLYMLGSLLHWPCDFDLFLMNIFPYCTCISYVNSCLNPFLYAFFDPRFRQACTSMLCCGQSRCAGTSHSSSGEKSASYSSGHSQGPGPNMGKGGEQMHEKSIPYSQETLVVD

Regarding `COc1cccc(OC)c1-n1c(NS(=O)(=O)[C@@H](C)[C@H](OC(C)C)c2ncc(C)cn2)nnc1-c1cncc(C)c1` (stereo in doubt) [Example 93.0, (1R,2S)-N-(4-(2,6-dimethoxyphenyl)-5-(5-methylpyridin-3-yl)-4H-1,2,4-triazol-3-yl)-1-isopropoxy-1-(5-methylpyrimidin-2-yl)propane-2-sulfonamide], the “Isolated Heart Assay dP/dtmax(%)” value in test [1] (setting [4]) was determined as 19.0%. Also, the “Isolated Heart Assay dP/dtmin(%)” value in test [1] (setting [5]) amounted to 27.0%. Besides, in the test on heart failure rat model (setting [6]), the “MI Rat Model dP/dtmax(%)” value is on record as 20%.

On to `CCO[C@H](c1ncc(C)cn1)[C@H](C)S(=O)(=O)Nc1nnc(-c2cccnc2)n1-c1c(OC)cccc1OC` (single isomer, unassigned) [Example 109.0], for which, in test [1], the “Isolated Heart Assay dP/dtmax(%)” value is 15%, the “Isolated Heart Assay dP/dtmin(%)” value stood at 25%, the “left ventricular dP/dtmax (load independent cardiac contractility)” value (“left ventricular dP/dtmax” below) is “increases load independent cardiac contractility” and the “left ventricular dP/dtmin (load independent cardiac relaxation)” value (shortened to “left ventricular dP/dtmin”) is “increases load independent cardiac relaxation”. Besides, in the test with heart failure rat model, the “cardiac contractility as measured by dP/dtmax (derivative of left ventricular pressure)” value (shortened to “cardiac contractility as measured”) is on record as “increase in cardiac contractility”. The “MI Rat Model dP/dtmax(%)” value with heart failure rat model (rat, in vivo) is given as 20%.

Turning to `COc1cccc(OC)c1-n1c(NS(=O)(=O)[C@@H](C)[C@@H](OC(C)C)c2ncc(C)cn2)nnc1-c1cncc(C)c1` (stereo in doubt) [Example 91.0, (1S,2S)-N-(4-(2,6-dimethoxyphenyl)-5-(5-methylpyridin-3-yl)-4H-1,2,4-triazol-3-yl)-1-isopropoxy-1-(5-methylpyrimidin-2-yl)propane-2-sulfonamide], the “Isolated Heart Assay dP/dtmax(%)” value in test [1] (setting [4]) is 20.0%. Further, in test [1] (setting [5]), the “Isolated Heart Assay dP/dtmin(%)” value was determined as 43.0%. The “MI Rat Model dP/dtmax(%)” value with heart failure rat model (setting [6]) is 25%.

Consider `COc1cccc(OC)c1-n1c(NS(=O)(=O)[C@@H](C)[C@H](OC)c2ncc(C)cn2)nnc1-c1cncc(C)c1` [Example 203.0, (1R,2S)-N-(4-(2,6-dimethoxyphenyl)-5-(5-methyl-3-pyridinyl)-4H-1,2,4-triazol-3-yl)-1-methoxy-1-(5-methyl-2-pyrimiidnyl)-2-propanesulfonamide], for which, in test [1] (setting [4]), the “Isolated Heart Assay dP/dtmax(%)” value was “No effect”. Further, in test [1] (setting [5]), the “Isolated Heart Assay dP/dtmin(%)” value is on record as “No effect”. The “MI Rat Model dP/dtmax(%)” value with heart failure rat model (setting [6]) was 12%.

Take apelin-17: the “in vitro activity compared among apelin-36, apelin-17 and apelin-13” value at APJ [2] is reported as “approximately equipotent”.

`COc1cccc(OC)c1-n1c(NS(=O)(=O)[C@@H](C)[C@H](O)c2ncc(C)cn2)nnc1-c1cccc(C)n1` [Example 99.0]: the “Isolated Heart Assay dP/dtmax(%)” value in test [1] (setting [4]) was 18% and 19.7%. Besides, the “Isolated Heart Assay dP/dtmin(%)” value in test [1] (setting [5]) was 30% and 31%. The “MI Rat Model dP/dtmax(%)” value in the test on heart failure rat model (setting [6]) is 30% and 31%.

On to `COc1ncnc(OC)c1-n1c(NS(=O)(=O)[C@@H](C)[C@H](OC)c2ncc(C)cn2)nnc1-c1ccccn1` [Example 628.0, (1R,2S)-N-(4-(4,6-dimethoxy-5-pyrimidinyl)-5-(2-pyridinyl)-4H-1,2,4-triazol-3-yl)-1-methoxy-1-(5-methyl-2-pyrimidinyl)-2-propanesulfonamide], for which, in test [1], the “Isolated Heart Assay dP/dtmax(%)” value was determined as 18.3% and the “Isolated Heart Assay dP/dtmin(%)” value is on record as 18.0%. Also, in the test with heart failure rat model (rat, in vivo), the “MI Rat Model dP/dtmax(%)” value is listed as 15%.

In the case of `COc1cccc(OC)c1-n1c(NS(=O)(=O)[C@H](C)[C@@H](OC)c2ncc(Cl)cn2)nnc1-c1cncc(C)c1` (single isomer, unassigned) [Example 557.0], the “Isolated Heart Assay dP/dtmax(%)” value in test [1] (setting [4]) came to 17.0%. For the same molecule, the “Isolated Heart Assay dP/dtmin(%)” value in test [1] (setting [5]) is reported as 20.0%. In addition, the “MI Rat Model dP/dtmax(%)” value with heart failure rat model (setting [6]) is reported as “No effect”.

On to apelin-36, for which, at APJ [2], the “in vitro activity compared among apelin-36, apelin-17 and apelin-13” value is listed as “approximately equipotent”.

`COc1cccc(-c2nnc(NS(=O)(=O)[C@@H](C)[C@H](OC)c3ncc(C)cn3)n2-c2c(F)cccc2F)n1.O=C(O)C(F)(F)F` [Example 684.0, (1R,2S)-N-(4-(2,6-difluorophenyl)-5-(6-methoxy-2-pyridinyl)-4H-1,2,4-triazol-3-yl)-1-methoxy-1-(5-methyl-2-pyrimidinyl)-2-propanesulfonamide]: in test [1] (setting [4]), the “Isolated Heart Assay dP/dtmax(%)” value came to 19.0%. Also, the “Isolated Heart Assay dP/dtmin(%)” value in test [1] (setting [5]) is given as 18.3%. In the test with heart failure rat model (setting [6]), the “MI Rat Model dP/dtmax(%)” value is reported as 20%.

On to `COc1cccc(-c2nnc(NS(=O)(=O)[C@@H](C)[C@H](OC)c3ncc(C)cn3)n2-c2c(OC)cccc2OC)n1` [Example 27.0, (1R,2S)-N-(4-(2,6-dimethoxyphenyl)-5-(6-methoxypyridin-2-yl)-4H-1,2,4-triazol-3-yl)-1-methoxy-1-(5-methylpyrimidin-2-yl)propane-2-sulfonamide], for which the “Isolated Heart Assay dP/dtmax(%)” value in test [1] (setting [4]) came out at 26%. Also, in test [1] (setting [5]), the “Isolated Heart Assay dP/dtmin(%)” value was found to be 20%. In test [1], the “left ventricular dP/dtmax” value is listed as “increases load independent cardiac contractility” and the “left ventricular dP/dtmin” value is “increases load independent cardiac relaxation”. Moreover, the “MI Rat Model dP/dtmax(%)” value in the test on heart failure rat model (setting [6]) is reported as 20%. Further, the “cardiac contractility as measured” value with heart failure rat model is reported as “increase in cardiac contractility”.

On to `COc1cccc(OC)c1-n1c(NS(=O)(=O)[C@@H](C)[C@H](C)c2ncc(C)cn2)nnc1-c1cccnc1` [Example 586.0, (2S,3R)-N-(4-(2,6-dimethoxyphenyl)-5-(3-pyridinyl)-4H-1,2,4-triazol-3-yl)-3-(5-methyl-2-pyrimidinyl)-2-butanesulfonamide], for which, in test [1], the “Isolated Heart Assay dP/dtmax(%)” value worked out at 15%, the “Isolated Heart Assay dP/dtmin(%)” value is given as 21%, the “left ventricular dP/dtmax” value is “increases load independent cardiac contractility” and the “left ventricular dP/dtmin” value is on record as “increases load independent cardiac relaxation”. Also, the “cardiac contractility as measured” value in the test on heart failure rat model is recorded as “increase in cardiac contractility”.

For orientation: EC50 means the concentration that produces a half-maximal response. Regarding `COc1cccc(-c2nnc(NS(=O)(=O)C[C@@H](O)c3cn4ccccc4n3)n2-c2c(OC)cccc2OC)n1` (mixture of isomers) [Example 257.0, (S)-N-(4-(2,6-dimethoxyphenyl)-5-(6-methoxypyridin-2-yl)-4H-1,2,4-triazol-3-yl)-2-hydroxy-2-(imidazo[1,2-a]pyridin-2-yl)ethanesulfonamide and (R)-N-(4-(2,6-dimethoxyphenyl)-5-(6-methoxypyridin-2-yl)-4H-1,2,4-triazol-3-yl)-2-hydroxy-2-(imidazo[1,2-a]pyridin-2-yl)ethanesulfonamide], the EC50 at APJ [3] (setting [7]) is 0.00073 µM.

For `COc1cccc(-c2nnc(NS(=O)(=O)[C@@H]3CCCO[C@@H]3c3ncc(C)cn3)n2-c2c(OC)cccc2OC)n1` (single isomer, unassigned) [Example 655.0], the EC50 on APJ [3] (setting [7]) stood at 0.13 µM.

On to `COc1cccc(OC)c1-n1c(NS(=O)(=O)[C@H](C)[C@@H](C)c2ncc(Cl)cn2)nnc1-c1cccnc1` (racemic) [Example 694.0, (2R,3S)-3-(5-chloropyrimidin-2-yl)-N-(4-(2,6-dimethoxyphenyl)-5-(pyridin-3-yl)-4H-1,2,4-triazol-3-yl)butane-2-sulfonamide or (2S,3R)-3-(5-chloropyrimidin-2-yl)-N-(4-(2,6-dimethoxyphenyl)-5-(pyridin-3-yl)-4H-1,2,4-triazol-3-yl)butane-2-sulfonamide], for which, in test [1] (setting [4]), the “Isolated Heart Assay dP/dtmax(%)” value was 18.0%. Also, in test [1] (setting [5]), the “Isolated Heart Assay dP/dtmin(%)” value was 32.0%. Also, the “MI Rat Model dP/dtmax(%)” value in the test with heart failure rat model (setting [6]) is 8%.

Turning to `COc1cccc(-c2nnc(NS(=O)(=O)C[C@H](O)c3ccc(F)cn3)n2-c2c(OC)cccc2OC)n1` (mixture of isomers) [Example 315.0, (2R)-N-(4-(2,6-dimethoxyphenyl)-5-(6-methoxy-2-pyridinyl)-4H-1,2,4-triazol-3-yl)-2-(5-fluoro-2-pyridinyl)-2-hydroxyethanesulfonamide and (2S)-N-(4-(2,6-dimethoxyphenyl)-5-(6-methoxy-2-pyridinyl)-4H-1,2,4-triazol-3-yl)-2-(5-fluoro-2-pyridinyl)-2-hydroxyethanesulfonamide], a half-maximal effect at APJ [3] (Activity hAPJ SPA EC50 IP (μM)) (EC50) was put at 0.00032 µM.

`COc1cnc([C@@H](OC)[C@H](C)S(=O)(=O)Nc2nnc(-c3cncc(C)c3)n2-c2c(OC)cccc2OC)cn1` (single isomer, unassigned) [Example 310.0] returned an EC50 on APJ [3] (Activity hAPJ SPA EC50 IP (μM)) of 0.00066 µM.

Take `CCNC(=O)c1cccc(-c2nnc(NS(=O)(=O)[C@@H](C)Cc3ncc(F)cn3)n2-c2c(OC)cccc2OC)n1` (mixture of isomers) [Example 228.0, 6-(4-(2,6-dimethoxyphenyl)-5-((((1S)-2-(5-fluoro-2-pyrimidinyl)-1-methylethyl)sulfonyl)amino)-4H-1,2,4-triazol-3-yl)-N-ethyl-2-pyridinecarboxamide and 6-(4-(2,6-dimethoxyphenyl)-5-((((1R)-2-(5-fluoro-2-pyrimidinyl)-1-methylethyl)sulfonyl)amino)-4H-1,2,4-triazol-3-yl)-N-ethyl-2-pyridinecarboxamide]: the EC50 at APJ [3] (setting [7]) was 0.0053 µM.

As for `COc1cccc(OC)c1-n1c(NS(=O)(=O)[C@@H]2CCCO[C@@H]2c2ncc(C)cn2)nnc1-c1cncc(C)c1` (single isomer, unassigned) [Example 646.0], the EC50 at APJ [3] (setting [7]) amounted to 0.053 µM.

Molecule `COc1cccc(-c2nnc(NS(=O)(=O)[C@H](C)[C@@H](OC(C)C)c3ncc(C)cn3)n2-c2c(OC)cccc2OC)n1` (single isomer, unassigned) [Example 97.0] registered an EC50 on APJ [3] (Activity hAPJ SPA EC50 IP (μM)) of 0.002 µM.

For `COc1cccc(OC)c1-n1c(NS(=O)(=O)[C@@H](C)[C@H](C)c2cnc(C)cn2)nnc1-c1cccnc1` [Example 198.0, (2S,3R)-N-(4-(2,6-dimethoxyphenyl)-5-(pyridin-3-yl)-4H-1,2,4-triazol-3-yl)-3-(5-methylpyrazin-2-yl)butane-2-sulfonamide], the “Isolated Heart Assay dP/dtmax(%)” value in test [1] (setting [4]) came to 15.0%. Further, the “Isolated Heart Assay dP/dtmin(%)” value in test [1] (setting [5]) is 19.0%. The “MI Rat Model dP/dtmax(%)” value in the test with heart failure rat model (setting [6]) is on record as 15%.
